system: PKC mediated IL-2 production; test: IL-2 ELISA, human primary T cell, anti CD3+CD28+; type: cell-based; settings: Homo sapiens, T-cell, 24 h, human primary T cells stimulated with αCD3 and αCD28, 24 hours
In short: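 IL-2 was quantified by ELISA in 24 h supernatants from primary human T cells given a 1 h compound pre-treatment at 37° C. These cells had been expanded from blood mononuclear cells on αCD3/αCD28 with IL-2, and the IL-2 was removed by washing. Stimulation used plate-bound αCD3 ([…]) plus αCD28 (5 μg/ml); the counter assay used PMA (0.5 ng/ml) with ionomycin (0.1 uM) instead.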

SMILES	EC50 [nM]
Cn1nnn(-c2cc(Nc3ncc(F)c(N[C@@H]4C[C@@H]5CCCN5C(C)(C)C4)n3)c(F)cc2C#N)c1=O [Compound 98, 4-(4-((7R,8aS)-octahydro-5,5-dimethylindolizin-7-ylamino)-5-fluoropyrimidin-2-ylamino)-5-fluoro-2-(4,5-dihydro-4-methyl-5-oxotetrazol-1-yl)benzonitrile]	100 to 500
CC1(C)C[C@H](Nc2nc(Nc3cccc(-n4nnn(C5COC5)c4=O)c3)ncc2F)C[C@@H]2CCCN21 [Compound 265, 1-(3-(4-((7R,8aS)-octahydro-5,5-dimethylindolizin-7-ylamino)-5-fluoropyrimidin-2-ylamino)phenyl)-4-(oxetan-3-yl)-1H-tetrazol-5(4H)-one]	100 to 500
COCCN1C(=O)C(C)(C)Oc2ccc(Nc3ncc(F)c(N[C@@H]4C[C@@H]5CCCN5C(C)(C)C4)n3)cc21 [Compound 319]	1000 to 10000
CC1(C)C[C@H](Nc2nc(Nc3ccc(OCC(O)CO)c(-n4cnnn4)c3)ncc2F)C[C@@H]2CCCN21 (stereo partly drawn) [Compound 214, 3-(4-((4-(((7R,8aS)-5,5-dimethyloctahydroindolizin-7-yl)amino)-5-fluoropyrimidin-2-yl)amino)-2-(1H-tetrazol-1-yl)phenoxy)propane-1,2-diol]	100 to 500
Cn1nc2n(c1=O)-c1cc(Nc3ncc(F)c(N[C@@H]4C[C@@H]5CCCN5C(C)(C)C4)n3)ccc1OCC2(C)O (stereo partly drawn) [Compound 292, 5-fluoro-N2-(1H-2,3,4,5-tetrahydron-2,4-dimethyl-4-hydroxy-[1,2,4]triazolo[4,5-c][1,5]benzoxazepin-1-one-9-yl)-N4-((7R,8aS)-octahydro-5,5-dimethylindolizin-7-yl)pyrimidine-2,4-diamine]	500 to 1000
CC(=O)O[C@H]1[C@H](OC(C)=O)C(Oc2cc(F)c(Nc3ncc(F)c(N[C@@H]4C[C@@H]5CCCN5C(C)(C)C4)n3)cc2-n2nnn(C)c2=O)OC[C@H]1OC(C)=O (stereo partly drawn) [Compound 191, (3S,4R,5R)-2-(4-((4-(((7R,8aS)-5,5-dimethyloctahydroindolizin-7-yl)amino)-5-fluoropyrimidin-2-yl)amino)-5-fluoro-2-(4-methyl-5-oxo-4,5-dihydro-1H-tetrazol-1-yl)phenoxy)tetrahydro-2H-pyran-3,4,5-triyl triacetate]	1000 to 10000
CC1(C)C[C@H](Nc2nc(Nc3cccc(-n4nnnc4S(C)(=O)=O)c3)ncc2F)C[C@@H]2CCCN21 [Compound 269, 5-fluoro-N4-((7R,8aS)-octahydro-5,5-dimethylindolizin-7-yl)-N2-(3-(5-(methylsulfonyl)-1H-tetrazol-1-yl)phenyl)pyrimidine-2,4-diamine]	500 to 1000
Cn1nnn(-c2cc(Nc3ncc(F)c(N[C@H]4C[C@@H]5CCC(=O)N5C(C)(C)C4)n3)c(F)cc2C2CC2)c1=O (racemic) [Compound 32, 1-(5-(5-fluoro-4-(hexahydro-5,5-dimethylindolizin-3(5H)-one-7-ylamino)pyrimidin-2-ylamino)-2-cyclopropyl-4-fluorophenyl)-4-methyl-1H-tetrazol-5(4H)-one]	1000 to 10000
Cn1nnn(-c2cc(Nc3ncc(C#N)c(N[C@@H]4C[C@@H]5CCCN5C(C)(C)C4)n3)c(F)cc2C2CC2)c1=O (racemic) [Compound 66, 4-((R/S,S/R)-Octahydro-5,5-dimethylindolizin-7-ylamino)-2-(4-cyclopropyl-2-fluoro-5-(4,5-dihydro-4-methyl-5-oxotetrazol-yl)phenylamino) pyrimidine-5-carbonitrile]	< 100
[2H]C1(Oc2ccc(Nc3ncc(F)c(N[C@H]4CCN5[C@@H](CCC5(C)C)C4)n3)cc2Cl)CC(O)C1 (stereo partly drawn) [Compound 313, 3-(2-Chloro-4-((4-(((7S,8aS)-3,3-dimethyloctahydroindolizin-7-yl)amino)-5-fluoropyrimidin-2-yl)amino)phenoxy)cyclobutan-3-d-1-ol]	100 to 500
CC1(C)C[C@H](Nc2nc(Nc3ccc(OCC4(CO)COC4)c(-n4cnnn4)c3)ncc2F)C[C@@H]2CCCN21 [Compound 204, (3-((4-((4-(((7R,8aS)-5,5-dimethyloctahydroindolizin-7-yl)amino)-5-fluoropyrimidin-2-yl)amino)-2-(1H-tetrazol-1-yl)phenoxy)methyl)oxetan-3-yl)methanol]	500 to 1000
CC(C)N1CCN(c2ccc(Nc3ncc(F)c(N[C@@H]4C[C@@H]5CCCN5C(C)(C)C4)n3)cc2C#N)CC1 [Compound 138, 5-(4-((7R,8aS)-octahydro-5,5-dimethylindolizin-7-ylamino)-5-fluoropyrimidin-2-ylamino)-2-(4-isopropylpiperazin-1-yl)benzonitrile]	< 100
Cc1nnnn1-c1cc(Nc2ncc(Cl)c(N[C@@H]3C[C@@H]4CCCN4C(C)(C)C3)n2)ccc1F [Compound 149, 5-chloro-N4-((7R,8aS)-5,5-dimethyloctahydroindolizin-7-yl)-N2-(4-fluoro-3-(5-methyl-1H-tetrazol-1-yl)phenyl)pyrimidine-2,4-diamine]	< 100
CC1(C)C[C@H](Nc2nc(Nc3ccc(OCCO)c(C#N)c3)ncc2F)C[C@@H]2CCCN21 [Compound 189, 5-((4-(((7R,8aS)-5,5-dimethyloctahydroindolizin-7-yl)amino)-5-fluoropyrimidin-2-yl)amino)-2-(2-hydroxyethoxy)benzonitrile]	100 to 500
CC1(C)C[C@H](Nc2nc(Nc3ccc(OCC4COCCO4)c(C#N)c3)ncc2F)C[C@@H]2CCCN21 (stereo partly drawn) [Compound 177, 2-((1,4-dioxan-2-yl)methoxy)-5-(4-((7R,8aS)-5,5-dimethyloctahydroindolizin-7-ylamino)-5-fluoropyrimidin-2-ylamino)benzonitrile]	100 to 500
CC1(C)C[C@H](Nc2nc(Nc3cccc(-n4nnnc4SCCO)c3)ncc2F)C[C@@H]2CCCN21 [Compound 266, 2-(1-(3-(4-((7R,8aS)-octahydro-5,5-dimethylindolizin-7-ylamino)-5-fluoropyrimidin-2-ylamino)phenyl)-1H-tetrazol-5-ylthio)ethanol]	< 100
Cn1nnn(-c2cc(Nc3ncc(F)c(N[C@@H]4C[C@@H]5CC(F)(F)CN5C(C)(C)C4)n3)c(F)cc2C2CC2)c1=O [Compound 45, 1-(5-(4-((7R,8aR)-2,2-difluoro-octahydro-5,5-dimethylindolizin-7-ylamino)-5-fluoropyrimidin-2-ylamino)-2-cyclopropyl-4-fluorophenyl)-4-methyl-1H-tetrazol-5(4H)-one]	1000 to 10000
COCC1(COC)Oc2ccc(Nc3ncc(F)c(N[C@@H]4C[C@@H]5CCCN5C(C)(C)C4)n3)cc2-n2nnnc21 [Compound 316, N^2-(4,5-dihydro-4,4-bis(methoxymethyl)tetrazolo[5,1-c][1,4]benzoxazin-8-yl)-N^4-((7R,8aS)-octahydro-5,5-dimethylindolizin-7-yl)-5-fluoropyrimidin-2,4-diamine]	< 100

same assay, conditions: human primary T cells stimulated with αCD3 and αCD28, 24 hours

SMILES	EC50 [nM]
Cn1nc2n(c1=O)-c1cc(Nc3ncc(F)c(N[C@@H]4C[C@@H]5CCCN5C(C)(C)C4)n3)ccc1OCC2(C)O (stereo partly drawn) [Compound 295, 5-fluoro-N2-(1H-2,3,4,5-tetrahydron-2,4-dimethyl-4-hydroxy-[1,2,4]triazolo[4,5-c][1,5]benzoxazepin-1-one-9-yl)-N4-((7R,8aS)-octahydro-5,5-dimethylindolizin-7-yl)pyrimidine-2,4-diamine]	500 to 1000
